From patent US20220298107A1, “SUBSTITUTED UREA DIHYDROOROTATE DEHYDROGENASE INHIBITORS” (Janssen Biotech, Inc., priority 2019, published 2022)
pEC50: −log10 of the molar value.

How the values were obtained:
human DHODH = human DHODH (Homo sapiens, UniProt Q02127); experiment: biochemical
Procedure: To detect DHODH enzyme activities, dichloroindophenol (DCIP) is added as the final electron acceptor in the assay. DCIP can accept electrons from the reduced coenzyme Q generated in the assay, or from dihydroorotate (DHO) via flavin mononucleotide (FMN) by binding presumably to the ubiquinone pocket. […] The assay buffer contained […], pH 7.5, 150 mM NaCl, 0.5 mM EDTA, and 0.1% Triton X-100 in MilliQ water. Substrate consisting of 20 mM DHO, 5 mM CoQ6, and 1 mM DCIP in assay buffer, initiates the reaction. […] Absorbance measurements were obtained using the BMG Phera Star plate-reading spectrophotomer. Purified human DHODH was purchased from Proteros (cat. No. PR-0044). Chemicals were purchased from Sigma-Aldrich, Teknova, and Avanti Polar Lipids. Liquid handling was performed using Labcyte Echo and Formulatrix Tempest.

MOLM-13 cells = experiment: MOLM-13 Cellular Assay; type: cell-based; conditions: Homo sapiens, MOLM-13, 72 h, read-out: MOLM-13 Cellular Assay EC50 (nM)
Procedure: MOLM-13 cells were obtained from DSMZ and were maintained in RPMI 1640+Glutamax+25 mM HEPES (Invitrogen, catalog number 72400) supplemented with 10% heat inactivated fetal bovine serum (FBS; Invitrogen, catalog number 16140). The day prior to assay set-up, cells were pelleted, resuspended in fresh media, counted, and cells were plated at 0.4×10^6 cell/mL in a T150 flask. On the day of the assay, cells were pelleted, resuspend in fresh media, counted and seeded at 5,000 cells/well in white opaque 96-well tissue culture treated microplates (Perkin Elmer, catalog number 6005680). Cells were exposed to different concentrations of test compounds at 37° C., 5% CO2 for 72 hours immediately after seeding. Cell viability was acquired on a Perkin Elmer Envision 2104 multilabel reader using the CellTiter-Glo assay (Promega) according to the manufacturer's instructions.

Chain of human DHODH (Q02127 whole entry): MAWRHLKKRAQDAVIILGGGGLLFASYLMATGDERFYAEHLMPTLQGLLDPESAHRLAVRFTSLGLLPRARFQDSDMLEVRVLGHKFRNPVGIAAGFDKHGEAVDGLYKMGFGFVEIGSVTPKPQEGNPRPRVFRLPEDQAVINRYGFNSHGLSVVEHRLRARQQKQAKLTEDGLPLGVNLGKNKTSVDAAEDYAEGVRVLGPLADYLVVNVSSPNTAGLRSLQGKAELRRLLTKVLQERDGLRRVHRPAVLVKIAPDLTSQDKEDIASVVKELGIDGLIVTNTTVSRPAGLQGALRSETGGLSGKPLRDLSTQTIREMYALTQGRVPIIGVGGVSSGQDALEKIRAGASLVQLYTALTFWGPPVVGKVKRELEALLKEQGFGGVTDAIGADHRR

| Structure (SMILES) | pEC50 (human DHODH) | EC50 (MOLM-13 cells) |
| --- | --- | --- |
| C[C@H](Oc1cc(NC(=O)N2CC(O)C2)c(F)cc1C(=O)Nc1c(F)cccc1Cl)C(F)(F)F [Example 23, (S)-N-(4-((2-Chloro-6-fluorophenyl)carbamoyl)-2-fluoro-5-((1,1,1-trifluoropropan-2-yl)oxy)phenyl)-3-hydroxyazetidine-1-carboxamide] | 6.27 | 270 nM |
| C[C@H](Oc1cc(NC(=O)N(C)CCO)c(F)cc1C(=O)Nc1c(F)cccc1Cl)C(F)(F)F [Example 18, (S)-N-(2-Chloro-6-fluorophenyl)-5-fluoro-4-(3-(2-hydroxyethyl)-3-methylureido)-2-((1,1,1-trifluoropropan-2-yl)oxy)benzamide] | 8.59 | 1.5 nM |
| COc1nccc(C)c1NC(=O)c1cc(F)c(NC(=O)N2CCC[C@@H]2CO)cc1O[C@@H](C)C(F)(F)F [Example 38, (R)-N-(2-Fluoro-4-((2-methoxy-4-methylpyridin-3-yl)carbamoyl)-5-(((S)-1,1,1-trifluoropropan-2-yl)oxy)phenyl)-2-(hydroxymethyl)pyrrolidine-1-carboxamide] | 9.77 | 16 nM |
| CCN(CC(F)F)C(=O)Nc1cc(O[C@@H](C)C(F)(F)F)c(C(=O)Nc2c(C)cnc(OC)c2C)cc1F [Example 45, (S)-4-(3-(2,2-Difluoroethyl)-3-ethylureido)-5-fluoro-N-(2-methoxy-3,5-dimethylpyridin-4-yl)-2-((1,1,1-trifluoropropan-2-yl)oxy)benzamide] | 7.57 | 63 nM |
| CCN(C(=O)Nc1cc(O[C@@H](C)C(F)(F)F)c(C(=O)Nc2c(F)cccc2Cl)cc1F)C(C)C [Example 4, (S)-N-(2-Chloro-6-fluorophenyl)-4-(3-ethyl-3-isopropylureido)-5-fluoro-2-((1,1,1-trifluoropropan-2-yl)oxy)benzamide] | 8.14 | 2.1 nM |
